In patent publication US20190125672A1, “Fabrication of Magnetic Vesicles for Biomedical Imaging and Delivery” (University of Maryland, College Park, priority 2017, published 2019) one finds tumor growth and IC50 data, which are given here for 1 compound.

In brackets after ≈: the same amount, converted by molar mass.

The test system of one test is U87MG tumors. As to the kind of experiment: In vivo tumor suppression. Also noted: species or system mice. The following applies: without magnet; Dox-equivalent dose 5 mg/kg i.v.; over 30 days. The procedure: The therapeutic efficacy was evaluated by monitoring the tumor volume change every two days over 30 days (FIG. 61A).
The U87MG tumor-bearing mice were randomly divided into six groups with 5 mice in each group. The first group of mice received PBS, as control group; the second group was injected with Dox solution, as “Dox” group; the third group was injected with Dox-MuMVs without magnetic attraction, as “magnet- RGD-” group; the fourth group was injected with RGD-Dox-MuMVs without magnetic enrichment, as “magnet-RGD+” group; the fifth group was injected with Dox-MuMVs under magnetic attraction, as “magnet+RGD-” group; the sixth group was injected with RGD-Dox-MuMVs under magnetic attraction, as “[…]” group. All the experimental groups (2-6 groups) are dispersed in 150 μl PBS before intravenous administration with a Dox-equivalent dose of 5 mg/kg. For the groups under magnetic attraction, the magnet was applied for 1 h along with injection of therapeutic agents. […] after the corresponding treatments, the volume of tumors was measured every other day and calculated by the following equation: V=L×W^2/2. The body weight of the mice was also evaluated during this period to reveal the systemic toxicity of the delivery platform.

Another test deals with U87MG cells. As to the kind of experiment: MTT cytotoxicity assay. The following applies: Dox concentration. Background: Tetrazolium dyes change colour on reduction, which living cells bring about.

Protocol for U87MG cells: Cells were plated at a density of 1×10^4 in 96-well plates and cultured at 37° C. for 24 hours. Then the culture medium was replaced and the cells were incubated with different concentrations of Dox, Mu magento-vesicles, Dox-Mu magento-vesicles, and RGD-Dox-Mu magento-vesicles for 1 hour. The concentrations of Fe in MuMVs, Dox-MuMVs and RGD-Dox-MuMVs as well as the concentrations of Dox in free drug, Dox-MuMVs and RGD-Dox-MuMVs groups were kept constant for the purpose of comparison. Then the culture medium was replaced with fresh medium and the cells were incubated for another 12 hours, followed by the addition of 20 μL of the MTT solution (5 mg/mL). After incubation for 4 hours, culture supernatants were carefully removed and 100 μL of DMSO was added into each well to dissolve the purple precipitate. The concentration of the reduced MTT in each well was determined spectrophotometrically by subtraction of the absorbance reading at 650 nm from that measured at 570 nm using a microplate reader (SpectraMax M5). Cell viabilities were presented as the percentage of the absorbance of Dox, MuMVs, Dox-MuMVs and RGD-Dox-MuMVs treated cells to the absorbance of non-treated cells and plotted as Fe and Dox concentrations.

For `COc1cccc2c1C(=O)c1c(O)c3c(c(O)c1C2=O)C[C@@](O)(C(=O)CO)C[C@@H]3O[C@H]1C[C@H](N)[C@H](O)[C@H](C)O1` [Dox, doxorubicin], the tumor growth entry with U87MG tumors is reported as “Minor delay in tumor growth”. For the same compound, the 50% inhibitory concentration (IC50) (in general, the concentration that inhibits the measured activity by half) in the test with U87MG cells stood at 0.47 µg/mL (≈ 0.865 µM).
